Test results: ChEMBL document CHEMBL3886201, “Compositions and methods for the treatment of malaria” (2016)
pIC50: −log10 of the molar value.

Tests used:
Plasmepsin II = Plasmepsin II (Plasmodium falciparum, UniProt P46925); assay: Enzyme Inhibition Assay : Plasmepsin-2 (PM-2; Plm II) and Plasmepsin (PM-4; Plm IV) expression and purification was performed following the published protocols (Istvan E S and Goldberg D E, 2005). The final purified protein was activated by diluting the protein to 0.3 mg/mL in activating buffer (0.1 M citrate pH 4.5, 0.1% Tween-20, 50 mM dithiothreitol) and incubated at room temperature for 40 min, then the activated enzyme was diluted in assay buffer (50 mM sodium acetate pH 4.7, 0.01% Tween-20). The enzymatic inhibition reaction was performed in 384 well plates with a total volume of 20 μl. 10 μl of diluted PM-2 or PM-4 enzyme was added to the 384-well plate except blank wells (blank wells add 10 μL of assay buffer) and 20 nL of serials of diluted 1000× compounds were added to the wells with 520 Echo® Liquid Handling System (Labcyte Inc.). 10 μL PM-2 peptide substrate (AnaSpec, Cat#, 62050) with assay buffer was then added to final concentration of 20 μM to start the reaction.
Sequence of Plasmepsin II (P46925 whole entry): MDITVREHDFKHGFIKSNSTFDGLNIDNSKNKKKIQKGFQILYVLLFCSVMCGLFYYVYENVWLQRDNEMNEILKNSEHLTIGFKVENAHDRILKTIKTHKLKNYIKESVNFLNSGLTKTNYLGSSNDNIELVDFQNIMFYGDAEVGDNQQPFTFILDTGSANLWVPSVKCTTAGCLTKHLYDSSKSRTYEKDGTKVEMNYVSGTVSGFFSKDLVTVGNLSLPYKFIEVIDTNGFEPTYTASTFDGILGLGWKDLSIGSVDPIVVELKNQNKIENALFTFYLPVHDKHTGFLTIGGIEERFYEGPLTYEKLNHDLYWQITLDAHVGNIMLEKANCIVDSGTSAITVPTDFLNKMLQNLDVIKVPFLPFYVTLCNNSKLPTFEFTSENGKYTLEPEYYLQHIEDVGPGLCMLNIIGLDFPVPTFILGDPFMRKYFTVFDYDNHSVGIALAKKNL

Beta-secretase 1 = Beta-secretase 1 (Homo sapiens, UniProt P56817); assay: The enzymatic inhibition activity assays were determined using the fluorescence resonance energy transfer (FRET) assay. The assays were performed in a 384-well plate format. […] The concentration of Cathepsin D was 20 ng/μL, and 1 ng/μL of Cathepsin E was used. CatD and CatE were activated by incubation in assay buffer (0.1 M NaOAc, 0.2 M NaCl, pH 3.5) at room temperature for 30 min. Subsequently, the rhBACE-1 substrate (R&D Systems, catalog# ES004), the Cathepsin D and Cathepsin E substrate (R&D Systems, Catalog # ES001) were added accordingly to final concentration
Sequence of Beta-secretase 1 (P56817 whole entry): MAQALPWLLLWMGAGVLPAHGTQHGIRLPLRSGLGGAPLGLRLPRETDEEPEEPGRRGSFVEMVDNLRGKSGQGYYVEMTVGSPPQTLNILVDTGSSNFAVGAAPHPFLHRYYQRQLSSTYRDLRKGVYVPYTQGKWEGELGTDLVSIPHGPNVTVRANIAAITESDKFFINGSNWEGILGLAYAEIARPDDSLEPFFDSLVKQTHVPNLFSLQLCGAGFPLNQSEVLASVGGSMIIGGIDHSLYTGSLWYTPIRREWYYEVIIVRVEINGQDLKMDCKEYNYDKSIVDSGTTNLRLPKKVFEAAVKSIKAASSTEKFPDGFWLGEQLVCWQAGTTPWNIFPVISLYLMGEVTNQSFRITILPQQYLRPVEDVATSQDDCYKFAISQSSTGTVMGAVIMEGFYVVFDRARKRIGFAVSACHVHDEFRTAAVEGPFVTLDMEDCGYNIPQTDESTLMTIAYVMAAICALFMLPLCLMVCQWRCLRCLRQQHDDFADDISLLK

N=C1NC(c2cccc(-c3cccnc3)c2)(C2CC2)C(=O)N1C1CCCCC1 (stereo not drawn)
pIC50 (Plasmepsin II): 6.90
pIC50 (Beta-secretase 1): 4.77

N=C1NC(c2ccccc2)(c2cccc(Oc3ccccc3)c2)C(=O)N1C1CCCCC1 (stereo not drawn)
pIC50 (Plasmepsin II): 8.66
